Key:
HDAC 2 = HDAC 2 (Homo sapiens, UniProt Q92769); details: reported by Ning et al.; cited from earlier work
[1] = system: 4T1 murine mammary carcinoma; assay: Example 4: lung metastatic foci count, orthotopic 4T1 murine mammary carcinoma in BALB/c mice; type: in vivo, mouse; details: day 14; HBI-8000 50 mg/kg p.o. qd×13; anti-PD-1 5 mg/kg i.p. biwk×2; vs vehicle control (35.0±2.17 foci)
Protocol: In this Example 4, antitumor responses induced by HBI-8000, administered alone and in combination with anti-PD-1 RMP1-14 (anti-PD-1) were characterized in the 4T1 murine mammary carcinoma xenograft model in BALB/c mice. The impact of these therapies on lung metastasis was evaluated.
Treatments began on Day (D) 1 in BALB/c mice bearing established 4T1 tumors. HBI-8000 was administered orally (p.o.) and anti-PD-1 was administered intraperitoneally (i.p.), at a single dose level. Test agents were administered alone and in combination with HBI-8000. Control animals received vehicle. The study ended on D14 as the endpoint for metastatic foci was reached. Treatment response was determined based on metastases counts taken from animals remaining on D14.
In Vivo Implantation and Tumor Growth: 4T1 tumor cells were harvested during exponential growth and resuspended in PBS. […] Tumor growth was monitored as the average size of tumors approached the target range of 80-120 mm3. […]
Results were analyzed by counting the lung metastatic foci on D14, the last day of the study. […] Percent inhibition was defined as the difference between the number of metastatic foci of the designated control group and the number of metastatic foci of the drug-treated group, expressed as a percentage of the number of metastatic foci of the designated control group: […]

HDAC 3 = HDAC 3 (Homo sapiens, UniProt O15379); details: reported by Ning et al.; cited from earlier work
HDAC 3, sequence (O15379 whole entry): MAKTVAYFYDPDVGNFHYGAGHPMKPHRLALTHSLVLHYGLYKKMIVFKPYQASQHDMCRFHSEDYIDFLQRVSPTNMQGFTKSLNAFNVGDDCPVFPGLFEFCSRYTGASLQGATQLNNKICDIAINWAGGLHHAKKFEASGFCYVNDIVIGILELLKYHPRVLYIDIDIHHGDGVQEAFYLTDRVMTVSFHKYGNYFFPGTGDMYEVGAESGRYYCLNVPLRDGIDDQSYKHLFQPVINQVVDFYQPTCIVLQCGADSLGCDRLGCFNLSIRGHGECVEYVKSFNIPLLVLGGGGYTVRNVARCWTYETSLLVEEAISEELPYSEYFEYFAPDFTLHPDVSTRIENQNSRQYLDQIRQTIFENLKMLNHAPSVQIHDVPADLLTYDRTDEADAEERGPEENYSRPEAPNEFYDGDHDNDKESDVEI
HDAC 3, sequence (Q9Y618 395-489 partner limits assumed): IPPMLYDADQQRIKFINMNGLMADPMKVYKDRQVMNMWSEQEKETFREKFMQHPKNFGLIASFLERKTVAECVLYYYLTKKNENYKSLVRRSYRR

HDAC 2, sequence (Q92769 whole entry): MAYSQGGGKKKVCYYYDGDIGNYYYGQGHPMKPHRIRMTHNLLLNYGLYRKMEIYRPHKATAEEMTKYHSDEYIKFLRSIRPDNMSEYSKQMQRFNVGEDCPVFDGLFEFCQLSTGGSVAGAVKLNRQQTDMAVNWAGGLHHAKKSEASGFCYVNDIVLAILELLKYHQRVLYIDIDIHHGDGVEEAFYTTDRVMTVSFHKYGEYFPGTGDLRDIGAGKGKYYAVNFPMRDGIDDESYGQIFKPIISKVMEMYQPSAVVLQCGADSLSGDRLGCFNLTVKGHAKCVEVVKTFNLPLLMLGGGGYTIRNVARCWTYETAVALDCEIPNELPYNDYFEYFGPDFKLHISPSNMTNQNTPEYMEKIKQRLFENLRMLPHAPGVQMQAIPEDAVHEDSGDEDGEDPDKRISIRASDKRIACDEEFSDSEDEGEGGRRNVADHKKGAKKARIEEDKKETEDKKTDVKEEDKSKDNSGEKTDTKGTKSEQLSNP

## Nc1cc(F)ccc1NC(=O)c1ccc(CNC(=O)/C=C/c2cccnc2)cc1 [HBI-8000, N-(2-amino-4-fluorophenyl)-4-[[[(2E)-1-oxo-3-(3-pyridinyl)-2-propen-1-yl]amino]methyl]benz amide]
HDAC 2
  activity at HDAC 2 compared with Entinostat: more active than Entinostat
  inhibition of HDAC 2: low nanomolar concentrations
[1]
  inhibition of lung metastatic foci: −26%
HDAC 3
  activity at HDAC 3 compared with Entinostat: more active than Entinostat
  inhibition of HDAC 3: low nanomolar concentrations

— patent publication US12122833B2, “Combination therapies of HDAC inhibitors and PD-1 inhibitors” (HUYABIO International, LLC, priority 2016, dated 2024)
